Reference: the supplement of paper PMC10307832

Columns and labels:
Test in all cases: relative viability (nuclei count vs DMSO), 5 days (fraction); higher = more cells survive
[1] = compound: O=C(Nc1c[nH]nc1-c1nc2ccc(CN3CCOCC3)cc2[nH]1)NC1CC1 [AT9283] + COc1cc2c(Oc3ccc(NC(=O)C4(C(=O)Nc5ccc(F)cc5)CC4)cc3F)ccnc2cc1OCCCN1CCOCC1 [Foretinib] (partner 0.25 µM)
Procedure, shortened: (§1)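 Lung cancer cell lines were pin-tool dosed in 1536-well plates on the day after seeding, with either a lone drug or a fixed anchor-drug dose plus five library-drug doses (not always all listed) in √10 steps. Nuclei were counted on 4× images after 5 days. Relative viability is the ratio of treated-well to vehicle-well nuclei counts, with each value a median of duplicate plates.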

[2] = compound: C#Cc1cccc(Nc2ncnc3cc(OCCOC)c(OCCOC)cc23)c1 [Erlotinib] + Cc1nc(NC(=O)N2CCC[C@H]2C(N)=O)sc1-c1ccnc(C(C)(C)C(F)(F)F)c1 [Alpelisib] (partner 2 µM)
Procedure, shortened: as §1

[3] = compound: O=C(Nc1c[nH]nc1-c1nc2ccc(CN3CCOCC3)cc2[nH]1)NC1CC1 [AT9283] + Nc1nc2[nH]cc(CCc3ccc(C(=O)N[C@@H](CCC(=O)O)C(=O)O)cc3)c2c(=O)[nH]1 [Pemetrexed] (partner 0.2 µM)
Procedure, shortened: as §1

[4] = compound: O=C(Nc1c[nH]nc1-c1nc2ccc(CN3CCOCC3)cc2[nH]1)NC1CC1 [AT9283] + NC(=O)Nc1cc(-c2cccc(F)c2)sc1C(=O)N[C@H]1CCCNC1 [AZD7762] (partner 0.2 µM)
Procedure, shortened: as §1

[5] = compound: O=C(Nc1c[nH]nc1-c1nc2ccc(CN3CCOCC3)cc2[nH]1)NC1CC1 [AT9283] + O=C(CCCCCCC(=O)Nc1ccccc1)NO [Vorinostat] (partner 1 µM)
Procedure, shortened: as §1

Cell Line	relative viability ([1]; first compound 0.003 µM)	relative viability ([1]; first compound 0.03 µM)	relative viability ([1]; first compound 0.09487 µM)	relative viability ([1]; first compound 0.3 µM)	relative viability ([2]; first compound 0.02 µM)	relative viability ([2]; first compound 0.2 µM)	relative viability ([2]; first compound 0.6325 µM)	relative viability ([2]; first compound 2 µM)	relative viability ([3]; first compound 0.003 µM)	relative viability ([3]; first compound 0.03 µM)	relative viability ([3]; first compound 0.09487 µM)	relative viability ([3]; first compound 0.3 µM)	relative viability ([4]; first compound 0.003 µM)	relative viability ([4]; first compound 0.03 µM)	relative viability ([4]; first compound 0.09487 µM)	relative viability ([4]; first compound 0.3 µM)	relative viability ([5]; first compound 0.003 µM)	relative viability ([5]; first compound 0.03 µM)	relative viability ([5]; first compound 0.09487 µM)	relative viability ([5]; first compound 0.3 µM)
HCC-366	0.962	0.881	0.0841	0.0697	0.46	0.25	0.402	0.209	0.169	0.2	0.101	0.067	0.209	0.485	0.0684	0.0719	0.292	0.2	0.0353	0.0463
HCC-827	1.05	0.745	0.331	0.244	0.3	0.171	0.172	0.148	0.281	0.247	0.236	0.207	0.234	0.169	0.145	0.153	0.612	0.36	0.363	0.248
HOP-62	1.12	0.667	0.324	0.321	–	1.05	1.05	0.977	0.439	0.192	0.144	0.153	0.561	0.143	0.161	0.199	0.637	0.262	0.183	0.186
LC-2-ad	0.881	0.71	0.336	0.225	0.909	0.843	0.834	0.686	0.258	0.253	0.219	0.164	0.848	0.794	0.398	0.227	0.696	0.251	0.199	0.157
LCLC-97TM1	0.938	0.49	0.163	0.176	0.218	–	0.316	0.259	0.19	0.134	0.0995	0.0907	0.305	0.102	0.0858	0.0762	0.734	0.15	0.128	0.0905
LCLC-103H	0.737	0.732	0.258	0.219	0.882	0.953	0.994	0.91	0.447	0.411	0.343	0.324	0.749	0.661	0.554	0.328	0.745	0.566	0.355	0.306
LK-2	0.965	0.31	0.159	0.129	0.932	0.976	1.33	1.03	0.196	0.135	0.136	0.105	0.344	0.109	0.0946	0.0986	0.282	0.185	0.146	0.138
LOU-NH91	0.913	0.887	0.548	0.375	0.539	0.495	0.527	0.512	0.406	0.385	0.331	0.351	0.735	0.669	0.479	0.444	0.905	0.552	0.449	0.432
LU99A	0.751	0.34	0.233	0.237	0.644	0.478	0.562	0.333	0.162	0.184	0.139	0.112	0.457	0.137	0.139	0.148	0.457	0.253	0.228	0.15
LXF-289	1	0.571	0.225	0.109	1.08	1	0.976	0.913	0.827	0.861	0.215	0.128	1.11	0.782	0.141	0.096	0.751	0.56	0.224	0.168
NCI-H23	0.985	0.717	0.412	0.32	0.763	0.593	0.816	0.634	0.675	0.749	0.296	0.238	0.265	0.295	0.179	0.128	0.523	0.363	0.183	0.177
NCI-H322M	0.958	0.544	0.41	0.462	0.693	0.745	0.589	0.335	0.605	0.438	0.443	0.482	0.554	0.395	0.46	0.487	0.87	0.579	0.497	0.407
NCI-H358	0.653	0.155	0.0898	0.0981	0.885	0.693	0.474	0.358	0.164	0.124	0.111	0.112	0.431	0.178	0.186	0.175	0.54	0.119	0.0833	0.0819
NCI-H460	0.983	0.907	0.184	0.0594	0.585	0.415	0.492	0.399	0.0566	0.0638	0.0674	0.0587	0.543	0.687	0.131	0.11	0.856	0.639	0.158	0.0711
NCI-H596	0.813	0.822	0.744	0.59	0.444	0.456	0.492	0.376	0.512	0.574	0.529	0.462	1.01	1.2	0.976	0.595	0.642	0.675	0.686	0.428
